Structures can show the parent of a compound that is named as a salt.
How the values were obtained:
[1] = test system: monocytes; assay: Stimulation of monocytic cells; Tumor Necrosis Factor (TNF) test on supernatants (toxicity on L-929 target cells); type: cell-based, human; settings: adherent blood monocytes cultured 24 or 48 hours with test product
Description: (§1) The mononuclear cells of the circulating blood of normal donors were separated by the classical technique described by Boyum using a Ficoll gradient. After being washed, the mononuclear cells were incubated at 37° C. for 1 hour in the proportion of 5×10^6 monocytes (NSE^+ cells) per ml of culture medium, 5 ml per culture bottle. The culture medium used in this experiment was composed of RPMI 1640 to which antibiotics and HEPES buffer had been added. After one hour, the non-adherent cells were removed by washing the bottles with medium previously brought to 37° C., and the adherent cells, composed essentially of monocytes (>90%), were cultured again in the presence of different amounts of test products in a PBS medium (Dulbecco) without Ca^2+ or Mg^2+. Culturing was continued for 24 or 48 hours and the cell supernatants were then withdrawn, centrifuged, aliquoted and stored either at -80° C. or at -20° C. The culture supernatants were replaced in the bottles by the same amount of pyrogen-free distilled water to lyse the cells. The lysate was recovered, aliquoted and also stored at -20° C.
(§2) Tests for the presence in the supernants of monokines (interleukin-1 and tumor necrosis factor) on the basis of their biological activity.
The technique was sensitized by adding actinomycin D to the test. The L cells were distributed in the proportion of 2×10^4 cells per well of a flat-bottomed microplate in 100 μl of RPMI 1640 medium enriched with 5% calf serum, glutamine, HEPES buffer and antibiotics. After 24 hours, different dilutions of the test supernatants were added in a volume of 100 μl, as well as a dose of actinomycin D of 1 μg/ml. After 24 hours of culturing, the number of unlysed viable cells was measured by staining the plates with crystal violet and measuring the optical density of different wells on a multiscan reader.

[2] = test system: monocytes; assay: Stimulation of monocytic cells; Interleukin-1 (IL-1) test on supernatants/lysates (mouse thymocyte co-mitogenic assay); type: cell-based, human; settings: for stimulation of monocytes and their IL-1 production: adherent blood monocytes cultured 24 or 48 hours with test product; for synergy with interferon-γ and or LPS: monocyte stimulation (IL-1 and TNF production), IFN-γ 10^3 U/ml, a dose inactive alone
Description: as §1, §2
This test was first described by Gery et al in 1972 [Gery et al, 1972 Potentiation of the T Lymphocyte response to mitogens. II. The Cellular Source of Potentiating Mediator(s). J. Exp. Med., 136-143]. It is based on the co-mitogenic action of IL-1 in the presence of an antigen (mimicked by phytohaemagglutinin in the test) on mouse thymocytes. 1.5×10^6 thymocytes of C3 H/HeJ mice (supplied by C.S.E.A.L. of Orleans) were cultured for 3 days in the presence of different dilutions of cell supernatants and lysates likely to contain IL-1 activity, and Wellcome PHA-P (1 μg/ml), in culture plates having 96 flat-bottomed wells, in a final volume of 200 μl of medium composed of RPMI 1640 containing, in addition to antibiotics (penicillin 1 μ/ml streptomycin 1000 μ/ml, 1 mM HEPES buffer, 2 mM glutamine, 5% calf serum and 5×10^-5 M 2-mercaptoethanol). After 68 hours of culturing, 1 μCi of tritiated thymidien was added to each well ([methyl^3 H]-thymidine, CEA Saclay, TMM79A, specific activity […]), and the radioactivity incorporated by the cells was measured after the cultures had been filtered on a Skaton type semi-automatic collecting apparatus and the filters counted in a scintillation counter (LKB). The results were expressed as the difference between the pulses per minute incorporated by the cultures in the presence of supernatants and the pulses per minute incorporated by the control cultures.

[3] = test system: human B lymphocytes; assay: Production of immuno-globulins (ELISA of supernatants, alone or with Staphylococcus aureus Cowan); type: cell-based; settings: in the presence of SAC (10^-3 and 10^-4); 0.1, 1 and 10 μg/ml; one week
Description: The same cells were cultivated for a week in the presence of different products to be tested at a dose of 0.1, 1 and 10 μg/ml alone or in the presence of two doses of the bacteria Staphylococcus aureus Cowan (SAC) (10^-3 and 10^-4), bacteria known for stimulating the production of immuno-globulins by the human B lymphocytes in a non-specific manner. The supernatants are collected at the end of the culture, and their content of immuno-globulin is evaluated by standard techniques of detection by the ELISA method using a human anti-immunoglobulin anti-body available commercially. The results are given in ng of immuno-globulin per ml of supernatant.

| SMILES | stimulation of monocytes and their TNF production [1] | stimulation of monocytes and their IL-1 production [2] | synergy with interferon-γ and or LPS [2] | production of immuno-globulins in the presence of SAC [3] |
| --- | --- | --- | --- | --- |
| C=C(CC(N)C(=O)O)CC(NC(=O)CC[C@@H](N)C(=O)O)C(=O)O (stereo partly drawn) [Example 1, 2-amino-6-(γ-D-glutamylamino)-4-methylene-heptanedioic acid] | stimulated | stimulated | synergy |  |
| C=C(CC(NC(=O)CC[C@@H](N)C(=O)O)C(=O)O)CC(NC(=O)[C@H](C)N)C(=O)O (stereo partly drawn) [Example 2, 2-(L-Alanylamino)-6-(γ-D-glutamylamino)-4-methyleneheptanedioic acid] | stimulated | stimulated | synergy |  |
| C=C(CC(N)C(=O)O)CC(NC(=O)CC[C@@H](NC(=O)[C@H](C)NC(=O)CCCCCCCCCCCCCCCCC)C(=O)O)C(=O)O (stereo partly drawn) [Example 8, 2-Amino-4-methylene-6-[N-1-oxo-octadecyl)-L-alanyl)-γ-D-glutamyl-amino]-heptanedioic acid and its tri sodium salt] | stimulated | stimulated | synergy | capable of increasing the production of immuno-globulins |
| C=C(CC(N)C(=O)O)CC(NC(=O)CC[C@@H](NC(=O)CCCCCCCCCCCCCCCCC)C(=O)O)C(=O)O (stereo partly drawn) [Example 9, 2-Amino-4-methylene-6-[[N-(1-oxo-octadecyl)-γ-D-glutamyl]amino]-heptanedioic acid] | stimulated | stimulated | synergy |  |

From US5108990A, “Glutamic acid derivatives” (Roussel Uclaf, priority 1987, dated 1992)
